Experimental data as given in patent US9248109B2, “High penetration prodrug compositions of peptides and peptide-related compounds” (priority 2009, dated 2016).

Columns and labels:
[1] = In vitro penetration rate across isolated human skin in modified Franz cells (HPLC); conditions: parent drugs; at lowest detectable value, considered not detectable
Procedure: The penetration rates of HPPs/HPCs and their parent drugs through human skin were measured in vitro by modified Franz cells. The Franz cells had two chambers, the top sample chamber and the bottom receiving chamber. The human skin tissue (360-400 p.m thick) that separated the top and the receiving chambers was isolated from the anterior or posterior thigh areas.
A compound tested (2 mL, 20% in 0.2 M phosphate buffer, pH 7.4) was added to the sample chamber of a Franz cell. The receiving chamber contains 10 ml of pH 7.4 phosphate buffer (0.2 M) which was stirred at 600 rpm. The amount of the tested compound penetrating the skin was determined by high-performance liquid chromatography (HPLC) method.

mice = test: Acetic acid writhing inhibition in mice, transdermal; format: in vivo, mouse; conditions: 10 mg/kg transdermally to the neck, acetic acid i.p. 30 minutes later; for rate of writhing inhibition (%): based on the control group; for No. of Writhings: control 35.0
Procedure: The number of writhings that occurred when mice were administered an acetic acid solution intraperitoneally were counted, and the rate of inhibition based on the control group was calculated. […] 30 minutes later, acetic acid solution was administered. The group A was the control group.

Osborne-Mendel rats = conditions: injected intraperitoneally, rats starved overnight, high-fat diet; cited from earlier work
rats = test: Solicitation and copulation of rats treated transdermally with HPPs/HPCs of Melanocortin II; format: in vivo, rat; conditions: for increase in copulation comparing to the control group / increase in solicitation comparing to the control group: 2 mg/kg once per day for 5 days; for Increased Copulation / Increased Solicitation: 2 mg/kg on the back once per day for 5 days, control = 1
Procedure: The same dosage of cyclo(1,6)-Ac-Nle-Asp-His-Phe-Arg(NO2)-Trp-Lys-OCH2CH2N(CH2CH3)2.HCl(SEQ ID NO: 201) (peptide B) was applied to the back of another group of male rats (Group B-1, 30 rats). Rats of a control group were not treated with any drug. […] 6 fold increase in solicitation and 3 fold increase in copulation for Group B-1 in rats were observed comparing to the control group (Table 15).
2 mg/kg peptide A and peptide B in 0.2 ml of pH 7.0 phosphate buffer (0.1M) were applied to the back of both male rats (30 rats) and female rats (30 rates) once per day for 5 days. Rats of a control group were not treated with any drug.

[2] = male and female rats treated (Groups A-2, B-2)
[3] = male rats treated (Groups A-1, B-1)

CSCC[C@H](NC(=O)[C@H](Cc1ccccc1)NC(=O)CNC(=O)CNC(=O)[C@@H](N)Cc1ccc(O)cc1)C(=O)O [Met-enkephalin, H-Tyr-Gly-Gly-Phe-Met-OH]
apparent flux value [1]: 1 μg/cm^2/h

Ac-Tyr(Ac)-D-Ala-Gly-Phe-Leu-OCH2CH2N(CH2CH3).HCl
rate of writhing inhibition (%) (mice): 85%
No. of Writhings (mice): 5.2

H-Val-Pro-Asp-Pro-Arg OH
food intake (in words) (Osborne-Mendel rats): dose-dependent reduction in food intake

HCl.H-Tyr(Ac)-D-Ala-Gly-Phe-Leu-OCH2(CH2)4—CH3 [B]
rate of writhing inhibition (%) (mice): 75%
No. of Writhings (mice): 8.6

HCl.H-Tyr(Ac)-D-Ala-Gly-Phe-Met(O)—OL
rate of writhing inhibition (%) (mice): 91%
No. of Writhings (mice): 3.2

cyclo(1,6)-Ac-Nle-Asp-His-Phe-Arg(diAc)-Trp-Lys-OCH2CH2N(CH2CH3)2.HCl
increase in copulation comparing to the control group (rats; [2]): 5 fold
increase in solicitation comparing to the control group (rats; [2]): 6 fold
Increased Copulation (rats; male and female rats treated): 5
Increased Solicitation (rats; male and female rats treated): 6
increase in copulation comparing to the control group (rats; [3]): 3 fold
increase in solicitation comparing to the control group (rats; [3]): 5 fold
Increased Copulation (rats; male rats treated): 3
Increased Solicitation (rats; male rats treated): 5
